In patent publication US20050244936A1, “Hydantoin-racemase” (DEGUSSA AG, priority 1999, published 2005):
Each block holds one compound with its values, some of them ahead of it.

Experiments:
HyuA = assay: Substrate specificity of HyuA: racemization of 5-substituted hydantoins by ORD polarimetry; type: biochemical, Arthrobacter aurescens DSM 3747; conditions: substrate conc. 0.9 mM; 100% racemase activity corresponds to 313 μ/mg by standard assay
Description: Racemization of the 5-substituted hydantoins BH, IMH and MTEH by HyuA was examined (Tab. 2).
Enzyme assays. Racemization of L-BH was measured by ORD-polarimerty (Model 341, Perkin Elmer Bodenseewerk, Überlingen, Germany) at a wavelength of 295 nm in the standard assay for racemase enzyme activity. 3 MM L-BH was dissolved in 0.1 M Tris, pH 3 at 45° C. in an ultrasonic waterbath, cooled to room temperature and the pH adjusted to pH 8.5 with 3 M NaOH. To 1 ml substrate solution 0.1 ml enzyme, diluted in 0.1 M Tris, pH 8.5, was added and the change in optical rotation determined at 37° C. by polarimetry (Teves et al., Fresenius' J. Anal. Chem. 1999, 363, 738-743). The racemization of MTEH and IMH by. HyuA was determined at substrate concentrations of 0.9 mM and recorded by ORD at 253 nm and 334 nm. The specific activities were calculated from initial reaction rates which were determined according to Teves et al. (1999). For determination of enzyme activity by HPLC, 1 mM L-IMH was dissolved as described above. The mixture containing 900 μl enzyme solution was incubated 5 min at 37° C. The reaction was stopped by addition of 400 μl 14% trichloroacetic acid and centrifugation in an Eppendorf centrifuge at full speed. 100 μl of the sample were diluted with 0.9 ml 0.1 M TrisHCl, pH 8.5, and D-IMH and L-IMH in the supernatant were separated by HPLC (Thermoseparation Products, Darmstadt, Germany) by injection of 20 μl sample into a Chiralpak WH-column (0.46×25 cm; Daicel Chemicals Industris LTD, Griesheim, Germany). The column was equilibrated with 0.25 mM CuSO4, pH 5.5. The flow rate was 1 ml/min at 50° C. and IMH detected at 254 nm. The chemical racemization of the substrate was taken into account. Racemization of […] substrate per minute was defined as one unit enzyme.

[1] = room temperature, pH 8.5, 20 hour; cited from earlier work
racemase HyuA = assay: Initial velocities at different concentrations of L-MTEH (kinetic plot); type: biochemical, Arthrobacter aurescens DSM 3747; conditions: FIG. 6
Description: The KM values of IMH and BH could not be determined due to the limited solubility of the substrates. Instead the initial velocities at different concentrations of L-MTEH were measured. […] Even at low substrate concentrations (>5 mM) inhibition is observed.
Enzyme assays. Racemization of L-BH was measured by ORD-polarimerty (Model 341, Perkin Elmer Bodenseewerk, Überlingen, Germany) at a wavelength of 295 nm in the standard assay for racemase enzyme activity. 3 MM L-BH was dissolved in 0.1 M Tris, pH 3 at 45° C. in an ultrasonic waterbath, cooled to room temperature and the pH adjusted to pH 8.5 with 3 M NaOH. To 1 ml substrate solution 0.1 ml enzyme, diluted in 0.1 M Tris, pH 8.5, was added and the change in optical rotation determined at 37° C. by polarimetry (Teves et al., Fresenius' J. Anal. Chem. 1999, 363, 738-743). The racemization of MTEH and IMH by. HyuA was determined at substrate concentrations of 0.9 mM and recorded by ORD at 253 nm and 334 nm. The specific activities were calculated from initial reaction rates which were determined according to Teves et al. (1999). For determination of enzyme activity by HPLC, 1 mM L-IMH was dissolved as described above. The mixture containing 900 μl enzyme solution was incubated 5 min at 37° C. […] The flow rate was 1 ml/min at 50° C. and IMH detected at 254 nm. […]

SMILES: O=C1NC(=O)[C@@H](Cc2c[nH]c3ccccc23)N1 [D-IMH]
Relative Activity (HyuA): 12%

SMILES: O=C1NC(=O)[C@H](Cc2c[nH]c3ccccc23)N1 [L-IMH]
Relative Activity (HyuA): 13% | fraction racemized to D-IMH (chemical racemization) [1]: about 10%

substrate concentration at which inhibition of the racemase is observed (racemase HyuA): > 5 mM
SMILES: CSCCC1NC(=O)NC1=O [L-MTEH]
Relative Activity (HyuA): 7%

SMILES: CSCCC1NC(=O)NC1=O [D-MTEH]
Relative Activity (HyuA): 8%

SMILES: O=C1NC(=O)[C@@H](Cc2ccccc2)N1 [D-BH, D-Benzylhydantoin]
Relative Activity (HyuA): 95%
